Measurements from patent publication US8636951B2, “Bio-terrorism counteraction using ozone and hydrogen peroxide” (priority 2010, dated 2014).

Test system: Bacillus subtilis
Format: cell-based

SMILES | A: count of viable Bacillus colonies at 10 dilution | B: count of viable Bacillus colonies at 100 dilution | C: count of viable Bacillus colonies at 1000 dilution | D: count of viable Bacillus colonies at 10000 dilution | Log10 RED
OO [hydrogen peroxide] | TNTCT | NTC | 210 | 12 | 0 Log10
O=[O+][O-] [ozone] | TNTCT | NTC |  |  | 
